Columns and labels:
Experiment in all cases: relative viability (nuclei count vs DMSO), 5 days (fraction); higher = more cells survive
[1] = compound: C1=CC2=NC=CN=C2C=C1/C=C/3\C(=O)NC(=O)S3 + COc1cccc2cc(-c3nc([C@H]4CC[C@H](C(=O)O)CC4)n4ncnc(N)c34)[nH]c12 [OSI-027] (partner 0.5 µM)
Method in brief: (§1)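 Relative viability is defined as nuclei in treated wells over nuclei in vehicle wells. Duplicate plates were run and medians reported. Lung cancer cell lines in 1536-well plates were dosed by pin tool one day after seeding, with one drug or with a fixed anchor-drug dose plus five library-drug doses (not always all listed) in √10 steps, and nuclei were counted after 5 days.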

[2] = compound: C1=CC2=NC=CN=C2C=C1/C=C/3\C(=O)NC(=O)S3 + CS(=O)(=O)CCNCc1ccc(-c2ccc3ncnc(Nc4ccc(OCc5cccc(F)c5)c(Cl)c4)c3c2)o1 [Lapatinib] (partner 2 µM)
Method in brief: as §1

[3] = compound: C1=CC2=NC=CN=C2C=C1/C=C/3\C(=O)NC(=O)S3 + Nc1nc2[nH]cc(CCc3ccc(C(=O)N[C@@H](CCC(=O)O)C(=O)O)cc3)c2c(=O)[nH]1 [Pemetrexed] (partner 0.2 µM)
Method in brief: as §1

[4] = compound: C1=CC2=NC=CN=C2C=C1/C=C/3\C(=O)NC(=O)S3 + O=C(CCCCCCC(=O)Nc1ccccc1)NO [Vorinostat] (partner 1 µM)
Method in brief: as §1

Cell Line UMC-11 has a relative viability ([1]; first compound 0.02 µM) of 0.56, a relative viability ([1]; first compound 0.06325 µM) of 0.527 and a relative viability ([1]; first compound 0.2 µM) of 0.552. For the same cell line, the relative viability ([1]; first compound 0.6325 µM) was 0.475, the relative viability ([1]; first compound 2 µM) was 0.439 and the relative viability ([2]; first compound 0.02 µM) was 1.02. The relative viability ([2]; first compound 0.06325 µM) was 1.15, the relative viability ([2]; first compound 0.2 µM) was 1.19 and the relative viability ([2]; first compound 0.6325 µM) was 1.02. It also gave a relative viability ([2]; first compound 2 µM) of 1.37, a relative viability ([3]; first compound 0.02 µM) of 0.775 and a relative viability ([3]; first compound 0.06325 µM) of 0.816. It also gave a relative viability ([3]; first compound 0.2 µM) of 0.862, a relative viability ([3]; first compound 0.6325 µM) of 0.79 and a relative viability ([3]; first compound 2 µM) of 0.887. The relative viability ([4]; first compound 0.02 µM) was 0.373, the relative viability ([4]; first compound 0.06325 µM) was 0.345 and the relative viability ([4]; first compound 0.2 µM) was 0.485. It also gave a relative viability ([4]; first compound 0.6325 µM) of 0.316 and a relative viability ([4]; first compound 2 µM) of 0.394.

Source: the supplement of paper PMC10307832
